Where a name gives a salt, the structure may show the parent alone.
Legend:
Type in all cases: cell-based
[1] = test system: liver fibrosis-related genes; assay: Semi-activated LX2 cells, qPCR: liver fibrosis-related genes overall; conditions: 48 hours, Q-PCR, Table 2
Protocol: (§1) Test compounds were added to the LX-2 cells respectively, and total RNA in the cells was extracted 48 hours later. This experiment was performed strictly in accordance with the instructions of the Total RNA Kit. The steps were as follows (note: this experiment was performed on ice throughout the entire process, and special RNase-free tips were used throughout the entire process): • 1) The 12-well cell culture plate was taken out from the incubator, the cell culture medium was discarded, the cells were washed twice with 1 mL of 1×PBS, and a negative pressure suction device was used to fully remove PBS; • 2) 350 μL of TRK Lysis Buffer mixture/well was prepared as needed (mixture preparation method: 1 mL of TRKLysis Buffer+20 μL of β-mercaptoethanol), vortexed and mixed well. 350 μL was added to each well of the 12-well cell culture plate, and allowed to stand at room temperature for 5 minutes to fully lyse the cells; • 3) 70% ethanol/well was prepared as needed, vortexed and mixed well. 350 μL was added to each well of the 12-well cell culture plate, mixed well by shaking, and transferred to the spin column (spin column+collection tube were assembled); • 4) Centrifugation was performed at 4° C., 12000 g for 60 sec. The waste liquid was discarded after centrifugation, while the spin column was kept; • 5) 500 μL of RNA Wash Buffer I was added, centrifuged at 4° C., 12000 g for 60 sec, the waste liquid was discarded after centrifugation, and the collection column was kept; • 6) 500 μL of RNA Wash Buffer II (confirmed that ethanol had been added) was added, centrifuged at 4° C., 12000 g for 60 sec, the waste liquid was discarded after centrifugation, and the collection column was kept; • 7) step 6) was repeated once again, centrifugation was performed at 4° C., 12000 g for 90 sec, the waste liquid was discarded after centrifugation, and the collection column was kept; • 8) Centrifugation was performed at 4° C., 12000 g for 120 sec to ensure that the spin column was fully dried; • 9) The dried spin column was inserted into a new 1.5 mL EP tube, and 30 μL of DEPC water was added to the membrane in the center of the spin column. It should be careful not to touch the EP tube cover in this step. It was allowed to stand at room temperature for 5 minutes to ensure that the RNA was fully dissolved in DEPC water. Centrifugation was performed at 4° C., 12000 g for 60 sec, and the EP tube was kept; • 10) NanoDrop ultra-micro-volume spectrophotometer was used to detect RNA concentration;
(§2) 5.3 Q-PCR detection of target gene expression: According to the instructions of Power SYBR® Green PCR Master Mix, the specific operations were as follows:
LX2 cells were passaged and plated normally. After adherent growth for 12 hours, 50 µM of the test compound was added. After 48 hours, the cells were collected, total RNA was extracted, and Q-PCR was used to detect the changes in the mRNA expression levels of liver fibrosis-related genes (ACTA2 encoding α-SMA, COL1A1 and COLIA2 encoding collagen I, COL3A1 encoding collagen III, SMAD3 encoding Smad3) and inflammation-related genes (IL1β encoding IL-1β, TNFα encoding TNFα) (for specific methods, see 5. Q-PCR detection of target gene expression as described above). α-SMA was a marker of hepatic stellate cell activation, and collagen I and collagen III were the main components of extracellular matrix deposition.

NS3TP1 = assay: Regulation of NS3TP1 in semi-activated LX2 cells, qPCR; conditions: LX-2 cells, 48 hours, Q-PCR, vs control group
Protocol: as §1
5.2 Reverse transcription of RNA into cDNA: According to the instructions of PrimeScript™ RT reagent Kit (Perfect Real Time), the specific experimental steps were as follows:
as §2
After the reaction was completed, the amplification curve and dissolution curve of Q-PCR were confirmed, and the relative quantification method ([…]) was used to perform data analysis on the experimental results.
LX2 cells were passaged and plated normally. […] After 48 hours, the cells were collected, total RNA was extracted, and the expression of NS3TP1 gene was detected using Q-PCR method.

α-SMA [2] = assay: In vitro efficacy in semi-activated LX2 cells, qPCR: α-SMA; conditions: 48 hours, Q-PCR; for inhibition at 50 µM: read-out: α-SMA mRNA inhibition rate; for inhibition of the expression of α-SMA at the mRNA level: Table 2
Procedure, shortened: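 Relative mRNA levels, from SYBR Green Q-PCR with relative quantification, are reported for LX2 cells treated for 48 hours with 50 µM test compound, added after 12 hours of adherent growth.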

α-SMA [3] = assay: Semi-activated LX2 cells, Western blot: α-SMA protein; conditions: 50-400 μM, 48 hours, FIG. 2, vs 50 μM aspartic acid
COL3A1 = assay: In vitro efficacy in semi-activated LX2 cells, qPCR: COL3A1; conditions: Homo sapiens, LX-2, 50 µM, 48 hours, Q-PCR, read-out: COL3A1 mRNA inhibition rate
IL-1β = assay: In vitro efficacy in semi-activated LX2 cells, qPCR: IL-1β; conditions: Homo sapiens, LX-2, 50 µM, 48 hours, Q-PCR, read-out: IL-1β mRNA inhibition rate
COL1A1 = assay: In vitro efficacy in semi-activated LX2 cells, qPCR: COL1A1; conditions: Homo sapiens, LX-2, 50 µM, 48 hours, Q-PCR, read-out: COL1A1 mRNA inhibition rate
TNF-α = assay: In vitro efficacy in semi-activated LX2 cells, qPCR: TNF-α; conditions: Homo sapiens, LX-2, 48 hours, Q-PCR, read-out: TNF-α mRNA inhibition rate

## COC(=O)[C@@H](N)CC(=O)O [Compound 4]
[1]
  inhibition of the mRNA expression levels of liver fibrosis-related genes (overall): stronger effects
NS3TP1; test concentration 10 mM
  Up-regulation of NS3TP1: B (B represented that the up-regulation was 20~40%)
α-SMA [2]
  inhibition at 50 µM: 25 to 50%
  inhibition of the expression of α-SMA at the mRNA level: could inhibit
α-SMA [3]
  inhibitory effect on α-SMA protein as compared to ASP: stronger inhibitory effects
COL3A1
  inhibition at 50 µM: 25 to 50%
IL-1β
  inhibition at 50 µM: 1 to 10%
COL1A1
  inhibition at 50 µM: 25 to 50%
TNF-α
  inhibition at 50 µM: 25 to 50%

## COC(=O)C[C@H](N)C(=O)O [Compound 6]
[1]
  inhibition of the mRNA expression levels of liver fibrosis-related genes (overall): stronger effects
NS3TP1; 200 µM compound
  Up-regulation of NS3TP1: A (A represented that the up-regulation was 40% or above)
α-SMA [2]
  inhibition at 50 µM: 10 to 25%
  inhibition of the expression of α-SMA at the mRNA level: could inhibit
α-SMA [3]
  inhibitory effect on α-SMA protein as compared to ASP: stronger inhibitory effects
COL3A1
  inhibition at 50 µM: 25 to 50%
IL-1β
  inhibition at 50 µM: 1 to 10%
COL1A1
  inhibition at 50 µM: 25 to 50%
TNF-α
  inhibition at 50 µM: 10 to 25%

## N[C@@H](CCC(=O)O)C(=O)O [Compound 47]
[1]
  inhibition of the mRNA expression levels of liver fibrosis-related genes (overall): stronger effects
α-SMA [3]
  inhibitory effect on α-SMA protein as compared to ASP: stronger inhibitory effects
COL3A1
  inhibition at 50 µM: 10 to 25%
IL-1β
  inhibition at 50 µM: 1 to 10%
COL1A1
  inhibition at 50 µM: 25 to 50%
TNF-α
  inhibition at 50 µM: 10 to 25%

## COC(=O)C[C@H](N)C(=O)OCOC(=O)[C@@H](N)CC(=O)OC [Compound 54, 4-dimethyl O′1,01-methylene (2S,2'S)-bis (2-aminosuccinate) hydrochloride]
[1]
  inhibition of the mRNA expression levels of liver fibrosis-related genes (overall): stronger effects
NS3TP1; 200 µM compound
  Up-regulation of NS3TP1: A (A represented that the up-regulation was 40% or above)
α-SMA [2]
  inhibition of the expression of α-SMA at the mRNA level: could inhibit
COL3A1
  inhibition at 50 µM: 10 to 25%
COL1A1
  inhibition at 50 µM: 25 to 50%
TNF-α
  inhibition at 50 µM: 1 to 10%

From patent US20250025438A1, “Derivative of aspartic acid and use thereof in treatment of metabolic diseases such as hepatic fibrosis and non-alcoholic hepatitis” (SHENZHEN JINGTAI TECHNOLOGY CO., LTD., priority 2021, published 2025)
